From patent publication US6344479B1, “Method of preventing retinopathy of prematurity in a neonate” (Farmacon-Il, LLC, priority 2001, dated 2002)

Legend:
prematurely born infants = assay: Clinical study: development of retinopathy of prematurity (ROP) in premature neonates given NSAID; type: in vivo, human; settings: for Max ROP grades: data as means per treatment group; for ROP: No (number of neonates without ROP) / ROP: Yes (number of neonates with any ROP): data as numbers of neonates per treatment group, i.v. postnatal treatment, gestation no more than 31 weeks
Description: A clinical study was carried out at the Neonatology Unit of University Hospital, Antwerp, Belgium.
Patients and Methods: 229 prematurely born infants were included in the study. All infants were born after a gestation period of no more than 31 weeks and all infants survived for a period of at least 21 days. Prospective serial retinal observation were performed by pediatric ophthalmologist starting at a postmenstrual age of 33 weeks. Evaluation for ROP in both eyes included staging and extension of disease, zone of involvement, number of clock hours, and the presence of any additional disease.

mouse = settings: administered concurrently with the injury phase; normal growth not affected; cited from earlier work

For COc1ccc2c(c1)c(CC(=O)O)c(C)n2C(=O)c1ccc(Cl)cc1 [Indomethacin, indomethacin], the “Max ROP grades” value (prematurely born infants) was 1 units, the “ROP: No (number of neonates without ROP)” value (prematurely born infants) was 32 and the “ROP: Yes (number of neonates with any ROP)” value (prematurely born infants) was 30. The “Effect on oxygen-induced retinopathy (in words)” value (mouse) was “improved oxygen-induced retinopathy”.

In the case of CC(C)Cc1ccc(C(C)C(=O)O)cc1 (centres unmarked) [Ibuprofen, ibuprofen lysinate], the “Max ROP grades” value (prematurely born infants) was 0.26 units, the “ROP: No (number of neonates without ROP)” value (prematurely born infants) was 26 and the “ROP: Yes (number of neonates with any ROP)” value (prematurely born infants) was 5. The “Risk of developing ROP (in words)” value (prematurely born infants; postnatal administration, independently of other studied neonatal risk factors) was “significantly reduced”.
